According to patent publication US9346815B2, “5-chloro-2-difluoromethoxyphenyl pyrazolopyrimidine compounds, compositions and methods of use thereof” (Genentech, Inc., priority 2014, dated 2016):
Structures can show the parent of a compound that is named as a salt.

Legend:
[1] = target: isolated recombinant JAK1 kinase domain (Homo sapiens (Human), UniProt P23458); test: JAK1 enzyme assay (Caliper LabChip, peptide phosphorylation); format: biochemical; conditions: isolated recombinant JAK1 kinase domain, 25 μM ATP
[2] = target: isolated recombinant JAK2 kinase domain (Homo sapiens (Human), UniProt O60674); test: JAK2 enzyme assay (Caliper LabChip, peptide phosphorylation); format: biochemical; conditions: 25 μM ATP
[3] = test system: JAK1-dependent STAT6 phosphorylation downstream of IL-13 stimulation in BEAS-2B human bronchial epithelial cells; test: JAK1 pathway assay in BEAS-2B cells (IL-13-pSTAT6, MSD); format: cell-based; conditions: read-out: IL13-pSTAT6 EC50 (uM)_BEAS-2B
In short: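 TF-1 cells are starved of GM-CSF overnight and run in serum-free medium, while BEAS-2B cells stay in complete growth medium. Inhibition of STAT6 phosphorylation is measured by MSD.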

Sequence of isolated recombinant JAK1 kinase domain (P23458 875-1153): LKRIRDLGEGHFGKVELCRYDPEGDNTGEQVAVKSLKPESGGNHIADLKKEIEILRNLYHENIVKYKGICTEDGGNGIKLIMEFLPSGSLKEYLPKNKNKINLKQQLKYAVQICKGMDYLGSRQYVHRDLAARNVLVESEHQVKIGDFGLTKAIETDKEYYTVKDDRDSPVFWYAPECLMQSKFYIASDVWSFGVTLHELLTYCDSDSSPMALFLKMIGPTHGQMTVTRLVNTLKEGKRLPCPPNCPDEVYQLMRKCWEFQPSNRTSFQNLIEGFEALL
Sequence of isolated recombinant JAK2 kinase domain (O60674 849-1124): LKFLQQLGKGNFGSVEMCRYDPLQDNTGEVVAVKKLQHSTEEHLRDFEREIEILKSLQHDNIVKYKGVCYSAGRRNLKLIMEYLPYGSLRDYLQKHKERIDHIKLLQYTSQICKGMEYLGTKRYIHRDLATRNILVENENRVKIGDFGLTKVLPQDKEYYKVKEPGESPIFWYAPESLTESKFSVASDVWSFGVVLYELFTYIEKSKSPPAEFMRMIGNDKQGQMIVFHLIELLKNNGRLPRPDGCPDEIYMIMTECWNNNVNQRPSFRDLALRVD

Structure (SMILES)	Ki [1] [nM]	Ki [2] [nM]	EC50 [3] [µM]
CC(F)(F)CNC1CCN(C(=O)Cn2cc(NC(=O)c3cnn4cccnc34)c(-c3cc(Cl)ccc3OC(F)F)n2)CC1 [Example 463, N-(3-(5-chloro-2-(difluoromethoxy)phenyl)-1-(2-(4-(2,2-difluoro-propylamino)piperidin-1-yl)-2-oxoethyl)-1H-pyrazol-4-yl)pyrazolo[1,5-a]pyrimidine-3-carboxamide]	0.31	0.7	0.007
CN1CCC2CN(C(=O)Cn3cc(NC(=O)c4cnn5cccnc45)c(-c4cc(Cl)ccc4OC(F)F)n3)CC21 (stereo not drawn) [Example 430, N-(3-(5-chloro-2-(difluoromethoxy)phenyl)-1-(2-(1-methyl-hexahydropyrrolo[3,4-b]pyrrol-5(1H)-yl)-2-oxoethyl)-1H-pyrazol-4-yl)pyrazolo[1,5-a]pyrimidine-3-carboxamide]	0.51	0.77	0.0058
O=C(Nc1cn(CC(=O)N2CCC(N3CCOCC3)CC2)nc1-c1cc(Cl)ccc1OC(F)F)c1cnn2cccnc12 [Example 393, N-[3-[5-chloro-2-(difluoromethoxy)phenyl]-1-[2-[4-(morpholin-4-yl)piperidin-1-yl]-2-oxoethyl]-1H-pyrazol-4-yl]pyrazolo[1,5-a]pyrimidine-3-carboxamide]	0.38	0.89	0.0115
O=C(Nc1cn(CCNCc2ccccc2O)nc1-c1cc(Cl)ccc1OC(F)F)c1cnn2cccnc12 [Example 326, N-[3-[5-chloro-2-(difluoromethoxy)phenyl]-1-(2-[[(2-hydroxyphenyl)methyl]amino]ethyl)-1H-pyrazol-4-yl]pyrazolo[1,5-a]pyrimidine-3-carboxamide]	0.21	0.28	0.007
CC(C#N)CN(C)C1CCN(C(=O)Cn2cc(NC(=O)c3cnn4cccnc34)c(-c3cc(Cl)ccc3OC(F)F)n2)CC1 (stereo not drawn) [Example 413, N-(3-(5-chloro-2-(difluoromethoxy)phenyl)-1-(2-(4-((2-cyanopropyl) (methyl)amino)piperidin-1-yl)-2-oxoethyl)-1H-pyrazol-4-yl)pyrazolo[1,5-a]pyrimidine-3-carboxamide]	0.25	0.74	0.0209
CN(C)C(=O)CN1CCN(CC2CCN(C(=O)Cn3cc(NC(=O)c4cnn5cccnc45)c(-c4cc(Cl)ccc4OC(F)F)n3)CC2)CC1 [Example 427, N-(3-(5-chloro-2-(difluoromethoxy)phenyl)-1-(2-(4-((4-(2-(dimethylamino)-2-oxoethyl)piperazin-1-yl)methyl)piperidin-1-yl)-2-oxoethyl)-1H-pyrazol-4-yl)pyrazolo[1,5-a]pyrimidine-3-carboxamide]	0.42	1.25	0.0224
CN1CCN(C(=O)Cn2cc(NC(=O)c3cnn4cccnc34)c(-c3cc(Cl)ccc3OC(F)F)n2)C(C)(C)C1 [Example 377, N-[3-[5-chloro-2-(difluoromethoxy)phenyl]-1-[2-oxo-2-(2,2,4-trimethylpiperazin-1-yl)ethyl]-1H-pyrazol-4-yl]pyrazolo[1,5-a]pyrimidine-3-carboxamide]	0.56	1.3	0.0528
CN(C)C(=O)CN1CCN(C(=O)Cn2cc(NC(=O)c3cnn4cccnc34)c(-c3cc(Cl)ccc3OC(F)F)n2)CC1 [Example 325, N-[3-[5-chloro-2-(difluoromethoxy)phenyl]-1-(2-[4-[(dimethylcarbamoyl)methyl]piperazin-1-yl]-2-oxoethyl)-1H-pyrazol-4-yl]pyrazolo[1,5-a]pyrimidine-3-carboxamide]	0.41	1.03	0.0651
O=C1C=C(CN2CCN(C(=O)Cn3cc(NC(=O)c4cnn5cccnc45)c(-c4cc(Cl)ccc4OC(F)F)n3)CC2)CO1 [Example 351, N-[3-[5-chloro-2-(difluoromethoxy)phenyl]-1-(2-oxo-2-[4-[(5-oxo-2,5-dihydrofuran-3-yl)methyl]piperazin-1-yl]ethyl)-1H-pyrazol-4-yl]pyrazolo[1,5-a]pyrimidine-3-carboxamide]	0.46	0.94	0.0365
CN(C)CC(O)Cn1cc(NC(=O)c2cnn3cccnc23)c(-c2cc(Cl)ccc2OC(F)F)n1 (stereo not drawn) [Example 404, N-(3-(5-chloro-2-(difluoromethoxy)phenyl)-1-(3-(dimethylamino)-2-hydroxypropyl)-1H-pyrazol-4-yl)pyrazolo[1,5-a]pyrimidine-3-carboxamide]	1.68	0.61	0.0078
O=C1CC(N2CCN(C(=O)Cn3cc(NC(=O)c4cnn5cccnc45)c(-c4cc(Cl)ccc4OC(F)F)n3)CC2)CO1 (stereo not drawn) [Example 392, N-[3-[5-chloro-2-(difluoromethoxy)phenyl]-1-[2-oxo-2-[4-(5-oxooxolan-3-yl)piperazin-1-yl]ethyl]-1H-pyrazol-4-yl]pyrazolo[1,5-a]pyrimidine-3-carboxamide]	0.4	0.77	0.0261
O=C(Nc1cn(CC(=O)N2CCN(Cc3ccccc3)CC2)nc1-c1cc(Cl)ccc1OC(F)F)c1cnn2cccnc12 [Example 320, N-[1-[2-(4-benzylpiperazin-1-yl)-2-oxoethyl]-3-[5-chloro-2-(difluoromethoxy)phenyl]-1H-pyrazol-4-yl]pyrazolo[1,5-a]pyrimidine-3-carboxamide]	0.31	0.6	0.0473
CN(CCCC#N)C1CCN(C(=O)Cn2cc(NC(=O)c3cnn4cccnc34)c(-c3cc(Cl)ccc3OC(F)F)n2)CC1 [Example 464, N-(3-(5-chloro-2-(difluoromethoxy)phenyl)-1-(2-(4-((3-cyanopropyl)(methyl)amino)piperidin-1-yl)-2-oxoethyl)-1H-pyrazol-4-yl)pyrazolo[1,5-a]pyrimidine-3-carboxamide]	0.49	1.41	0.0095
CCOC(=O)C1(C)CCN(CCN2CCN(C(=O)Cn3cc(NC(=O)c4cnn5cccnc45)c(-c4cc(Cl)ccc4OC(F)F)n3)CC2)CC1 [Example 337, ethyl 1-[2-[4-(2-[3-[5-chloro-2-(difluoromethoxy)phenyl]-4-[pyrazolo[1,5-a]pyrimidine-3-amido]-1H-pyrazol-1-yl]acetyl)piperazin-1-yl]ethyl]-4-methylpiperidine-4-carboxylate formate]	0.83	2.52	0.0232
NC1CCC(=CCn2cc(NC(=O)c3cnn4cccnc34)c(-c3cc(Cl)ccc3OC(F)F)n2)CC1 (stereo not drawn) [Example 422, N-(1-(2-(4-amino-cyclohexylidene)ethyl)-3-(5-chloro-2-(difluoromethoxy)phenyl)-1H-pyrazol-4-yl)pyrazolo[1,5-a]pyrimidine-3-carboxamide]	0.89	1.77	0.061
CCOC(=O)CN1CCC(n2cc(NC(=O)c3cnn4cccnc34)c(-c3cc(Cl)ccc3OC(F)F)n2)CC1 [Example 366, ethyl 2-(4-[3-[5-chloro-2-(difluoromethoxy)phenyl]-4-[pyrazolo[1,5-a]pyrimidine-3-amido]-1H-pyrazol-1-yl]piperidin-1-yl)acetate]	1.07	0.99	0.312
O=C(Nc1cn(CC(=O)N2CCN(CC3CCOCC3)CC2)nc1-c1cc(Cl)ccc1OC(F)F)c1cnn2cccnc12 [Example 458, N-(3-(5-chloro-2-(difluoromethoxy)phenyl)-1-(2-oxo-2-(4-((tetrahydro-2H-pyran-4-yl)methyl)piperazin-1-yl)ethyl)-1H-pyrazol-4-yl)pyrazolo[1,5-a]pyrimidine-3-carboxamide]	0.47	0.9	0.0081
O=C(Nc1cn(CC(=O)N2CCN(C3CCOC3)CC2)nc1-c1cc(Cl)ccc1OC(F)F)c1cnn2cccnc12 (stereo not drawn) [Example 437, N-(3-(5-chloro-2-(difluoromethoxy)phenyl)-1-(2-oxo-2-(4-(tetrahydrofuran-3-yl)piperazin-1-yl)ethyl)-1H-pyrazol-4-yl)pyrazolo[1,5-a]pyrimidine-3-carboxamide]	0.38	0.88	0.0126
CC1CN(C(=O)Cn2cc(NC(=O)c3cnn4cccnc34)c(-c3cc(Cl)ccc3OC(F)F)n2)CCN1C (stereo not drawn) [Example 376, N-[3-[5-chloro-2-(difluoromethoxy)phenyl]-1-[2-(3,4-dimethylpiperazin-1-yl)-2-oxoethyl]-1H-pyrazol-4-yl]pyrazolo[1,5-a]pyrimidine-3-carboxamide]	0.66	1.03	0.0325
CC(C)(C)OC(=O)N1CC[C@@H](n2cc(NC(=O)c3cnn4cccnc34)c(-c3cc(Cl)ccc3OC(F)F)n2)[C@H](O)C1 (single isomer, unassigned) [Example 354]	0.72	1.05	0.024
CC(c1ccccc1)N1CCN(C(=O)Cn2cc(NC(=O)c3cnn4cccnc34)c(-c3cc(Cl)ccc3OC(F)F)n2)CC1 (stereo not drawn) [Example 316, N-[3-[5-chloro-2-(difluoromethoxy)phenyl]-1-[2-oxo-2-[4-(1-phenylethyl)piperazin-1-yl]ethyl]-1H-pyrazol-4-yl]pyrazolo[1,5-a]pyrimidine-3-carboxamide]	0.48	1.04	0.142
CN(CC1(CC#N)CC1)C1CCN(C(=O)Cn2cc(NC(=O)c3cnn4cccnc34)c(-c3cc(Cl)ccc3OC(F)F)n2)CC1 [Example 435, N-(3-(5-chloro-2-(difluoromethoxy)phenyl)-1-(2-(4-(((1-(cyanomethyl)cyclopropyl)methyl)(methyl)amino)piperidin-1-yl)-2-oxoethyl)-1H-pyrazol-4-yl)pyrazolo[1,5-a]pyrimidine-3-carboxamide]	0.34	0.98	0.0074
